Experimental data reported in patent publication US9944678B2, “Immunomodulators” (BRISTOL-MYERS SQUIBB COMPANY, priority 2014, dated 2018).
Starred links: 1 amine or outer side, 2 acyl side, 3 side chain; linkers in the order of their positions; H or OH if unused. Positions of bridges follow the written chain, without caps; N, C: chain ends. Non-standard residues stand in square brackets, D forms with d. Residues, ends and D or L forms follow the SMILES beside them. ξ: configuration not given here. X1 = C=C[C@H]1C[C@@]1(N[*:1])C(=O)[*:2]; Bta = N[C@@H](Cc1csc2ccccc12)C(=O)O; X3 = C[C@H]1CC1(N[*:1])C(=O)[*:2]; Hyp = O=C(O)[C@@H]1C[C@@H](O)CN1; Aic = NC1(C(=O)O)Cc2ccccc2C1; NMeNle = CCCC[C@H](NC)C(=O)O; NMeA = CN[C@@H](C)C(=O)O; Dab = NCC[C@H](N)C(=O)O; Dap = NC[C@H](N)C(=O)O; Ac3c = NC1(C(=O)O)CC1; Aib = CC(C)(N)C(=O)O; ξC = NC(CS)C(=O)O

Target: T1, PD-1-Ig binding to PD-L1-TVMV-His (PD-L1-His) (Homo sapiens, UniProt Q9NZQ7)
T1 construct: hPDL1(19-239)-TVMV-His; TVMV protease cleavage site (C); made in house; host or cells: HEK293T cells
Assay: PD-1/PD-L1 Homogenous Time-Resolved Fluorescence (HTRF) binding assay
Details: PD-1-Ig/PD-L1-His binding; numeric values
From the text: The ability of the macrocyclic peptides of the present disclosure to bind to PD-L1 was investigated using a PD-1/PD-L1 Homogenous Time-Resolved Fluorescence (HTRF) binding assay.
Homogenous Time-Resolved Fluorescence (HTRF) Assays of Binding of Soluble PD-1 to Soluble PD-L1. Soluble PD-1 and soluble PD-L1 refers to proteins with carboxyl-end truncations that remove the transmembrane-spanning regions and are fused to heterologous sequences, specifically the Fc portion of the human immunoglobuling G sequence (Ig) or the hexahistidine epitope tag (His). All binding studies were performed in an HTRF assay buffer consisting of dPBS supplemented with 0.1% (w/v) bovine serum albumin and 0.05% (v/v) Tween-20. For the PD-1-Ig/PD-L1-His binding assay, inhibitors were pre-incubated with PD-L1-His (10 nM final) for 15 m in 4 μl of assay buffer, followed by addition of PD-1-Ig (20 nM final) in 1 μl of assay buffer and further incubation for 15 m. PD-L1 fusion proteins from either human, cynomologous macaques, mouse, or other species were used. HTRF detection was achieved using europium crypate-labeled anti-Ig monoclonal antibody (1 nM final) and allophycocyanin (APC) labeled anti-His monoclonal antibody (20 nM final). Antibodies were diluted in HTRF detection buffer and 5 μl was dispensed on top of binding reaction. The reaction was allowed to equilibrate for 30 minutes and signal (665 nm/620 nm ratio) was obtained using an EnVision fluorometer. Additional binding assays were established between PD-1-Ig/PD-L2-His (20 and 5 nM, respectively), CD80-His/PD-L1-Ig (100 and 10 nM, respectively) and CD80-His/CTLA4-Ig (10 and 5 nM, respectively). Binding/competition studies between biotinylated Compound No. 71 and human PD-L1-His were performed as follows. Macrocyclic peptide inhibitors were pre-incubated with PD-L1-His (10 nM final) for 60 minutes in 4 μl of assay buffer followed by addition of biotinylated Compound No. 71 (0.5 nM final) in 1 μl of assay buffer. Binding was allowed to equilibrate for 30 minutes followed by addition of europium crypated labeled Streptavidin (2.5 pM final) and APC-labeled anti-His (20 nM final) in 5 μl of HTRF buffer. The reaction was allowed to equilibrate for 30 m and signal (665 nm/620 nm ratio) was obtained using an EnVision fluorometer.
Recombinant Proteins. Carboxyl-truncated human PD-1 (amino acids 25-167) with a C-terminal human Ig epitope tag [hPD-1 (25-167)-3S-IG] and human PD-L1 (amino acids 18-239) with a C-terminal His epitope tag [hPD-L1(19-239)-tobacco vein mottling virus protease cleavage site (TVMV)-His] were expressed in HEK293T cells and purified sequentially by recombinant Protein A affinity chromatography and size exclusion chromatography. Human PD-L2-His (Sino Biologicals), CD80-His (Sino Biologicals), CTLA4-Ig (RnD Systems) were all obtained through commercial sources.
Ranges are as follows: A=0.10-10 μM; B=0.01-0.099 μM; C=0.004-0.0099 μM.

T1 sequence (Q9NZQ7 with tags, fused parts or gaps): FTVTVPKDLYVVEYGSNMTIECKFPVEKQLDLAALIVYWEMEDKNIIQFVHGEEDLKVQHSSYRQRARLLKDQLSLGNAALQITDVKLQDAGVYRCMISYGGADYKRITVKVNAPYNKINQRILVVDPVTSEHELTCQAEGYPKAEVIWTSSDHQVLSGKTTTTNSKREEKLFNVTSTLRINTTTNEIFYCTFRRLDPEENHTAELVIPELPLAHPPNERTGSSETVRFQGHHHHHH

Compound	IC50 [nM]
CCCC[C@H]1C(=O)N(C)[C@@H](CCCC)C(=O)N[C@@H](CC(C)C)C(=O)N[C@H](C(=O)NCC(N)=O)CSCC(=O)N[C@@H](Cc2ccc(O)cc2)C(=O)N(C)[C@@H](C)C(=O)N[C@@H](CC(N)=O)C(=O)N2CCC[C@H]2C(=O)NC(C)(C)C(=O)N[C@@H](CC(C)C)C(=O)N2C[C@H](O)C[C@H]2C(=O)N[C@@H](Cc2c[nH]c3ccccc23)C(=O)N[C@@H](CCN)C(=O)N[C@@H](Cc2c[nH]c3ccccc23)C(=O)N1C [Example 9011] ({CH2CO}-Y[NMeA]NP[Aib]L[Hyp]W[Dab]W[NMeNle][NMeNle]LCG-NH2; thioether N-14)	20
CCCC[C@H]1C(=O)N(C)[C@@H](CCCC)C(=O)N[C@@H](CCCNC(=N)N)C(=O)NC(C(=O)NCC(N)=O)CSCC(=O)N[C@@H](Cc2ccc(O)cc2)C(=O)NC2(CC2)C(=O)N[C@@H](CC(N)=O)C(=O)N2CCC[C@H]2C(=O)N[C@@H](Cc2c[nH]cn2)C(=O)N[C@@H](CC(C)C)C(=O)N2C[C@H](O)C[C@H]2C(=O)N[C@@H](Cc2c[nH]c3ccccc23)C(=O)N[C@@H](CO)C(=O)N[C@@H](Cc2c[nH]c3ccccc23)C(=O)N1C (stereo partly shown) [Example 9002]	4.13
CCCC[C@H]1C(=O)N(C)[C@@H](CCCC)C(=O)N[C@@H](CCCNC(=N)N)C(=O)NC(C(=O)NCC(N)=O)CSCC(=O)N[C@@H](Cc2ccc(O)cc2)C(=O)N(C)[C@@H](C)C(=O)N[C@@H](CC(N)=O)C(=O)N2CCC[C@H]2C(=O)N[C@@H](Cc2cnc[nH]2)C(=O)N[C@@H](CC(C)C)C(=O)NC2(C[C@@H]2C)C(=O)N[C@@H](Cc2c[nH]c3ccccc23)C(=O)N[C@@H](CO)C(=O)N[C@@H](Cc2csc3ccccc23)C(=O)N1C (stereo partly shown) [Example 10005] ({CH2CO}-Y[NMeA]NPHL[X3]WS[Bta][NMeNle][NMeNle]R[ξC]G-NH2; thioether N-14)	1000
C=C[C@H]1C[C@]12NC(=O)[C@H](CC(N)=O)NC(=O)[C@H](C)N(C)C(=O)[C@H](Cc1ccc(O)cc1)NC(=O)CSCC(C(=O)NCC(N)=O)NC(=O)[C@H](CCCNC(=N)N)NC(=O)[C@H](CCCC)N(C)C(=O)[C@H](CCCC)N(C)C(=O)[C@H](Cc1csc3ccccc13)NC(=O)[C@H](CO)NC(=O)[C@H](Cc1c[nH]c3ccccc13)NC(=O)[C@@H]1C[C@@H](O)CN1C(=O)[C@H](CC(C)C)NC(=O)[C@H](Cc1cnc[nH]1)NC2=O (stereo partly shown) [Example 10002] ({CH2CO}-Y[NMeA]N[X1]HL[Hyp]WS[Bta][NMeNle][NMeNle]R[ξC]G-NH2; thioether N-14)	200

Same assay, conditions: PD-1-Ig/PD-L1-His binding; values given as range classes

Compound	IC50 [nM]
CCCC[C@H]1C(=O)N(C)[C@@H](CCCC)C(=O)N[C@@H](CCCNC(=N)N)C(=O)N[C@H](C(=O)NCC(N)=O)CSCC(=O)N[C@@H](Cc2ccccc2)C(=O)N(C)[C@@H](C)C(=O)N[C@@H](CC(N)=O)C(=O)N2CCC[C@H]2C(=O)N[C@@H](Cc2cnc[nH]2)C(=O)N[C@@H](CC(C)C)C(=O)NC(C)(C)C(=O)N[C@@H](Cc2c[nH]c3ccccc23)C(=O)N[C@@H](CO)C(=O)N[C@@H](Cc2c[nH]c3ccccc23)C(=O)N1C [Example 1002]	100 to 10000
CCCC[C@H]1C(=O)N(C)[C@@H](CCCC)C(=O)NC2(Cc3ccccc3C2)C(=O)N[C@H](C(=O)NCC(N)=O)CSCC(=O)N[C@@H](Cc2ccc(O)cc2)C(=O)N(C)[C@@H](C)C(=O)N[C@@H](CC(N)=O)C(=O)N2CCC[C@H]2C(=O)N[C@@H](CN)C(=O)N[C@@H](CC(C)C)C(=O)N2C[C@H](O)C[C@H]2C(=O)N[C@@H](Cc2c[nH]c3ccccc23)C(=O)N[C@@H](CCN)C(=O)N[C@@H](Cc2c[nH]c3ccccc23)C(=O)N1C [Example 9016] ({CH2CO}-Y[NMeA]NP[Dap]L[Hyp]W[Dab]W[NMeNle][NMeNle][Aic]CG-NH2; thioether N-14)	10 to 99
CCCC[C@H]1C(=O)N(C)[C@@H](CCCC)C(=O)N[C@@H](CC(C)C)C(=O)N[C@H](C(=O)NCC(N)=O)CSCC(=O)N[C@@H](Cc2ccc(O)cc2)C(=O)N(C)[C@@H](C)C(=O)NC2(CC2)C(=O)N2CCC[C@H]2C(=O)N[C@@H](CN)C(=O)N[C@@H](CC(C)C)C(=O)N2C[C@H](O)C[C@H]2C(=O)N[C@@H](Cc2c[nH]c3ccccc23)C(=O)N[C@@H](CCN)C(=O)N[C@@H](Cc2c[nH]c3ccccc23)C(=O)N1C [Example 9014] ({CH2CO}-Y[NMeA][Ac3c]P[Dap]L[Hyp]W[Dab]W[NMeNle][NMeNle]LCG-NH2; thioether N-14)	100 to 10000
CCCC[C@H]1C(=O)N(C)[C@@H](CCCC)C(=O)N[C@@H](CC(C)C)C(=O)N[C@H](C(=O)NCC(N)=O)CSCC(=O)N[C@@H](Cc2ccc(O)cc2)C(=O)N(C)[C@@H](C)C(=O)N[C@@H](CC(N)=O)C(=O)N2CCC[C@H]2C(=O)N[C@@H](CN)C(=O)NC(C)(C)C(=O)N2C[C@H](O)C[C@H]2C(=O)N[C@@H](Cc2c[nH]c3ccccc23)C(=O)N[C@@H](CCN)C(=O)N[C@@H](Cc2c[nH]c3ccccc23)C(=O)N1C [Example 9009] ({CH2CO}-Y[NMeA]NP[Dap][Aib][Hyp]W[Dab]W[NMeNle][NMeNle]LCG-NH2; thioether N-14)	100 to 10000
CCCC[C@H]1C(=O)N(C)[C@@H](CCCC)C(=O)N[C@@H](CC(C)C)C(=O)N[C@H](C(=O)NCC(N)=O)CSCC(=O)N[C@@H](Cc2ccc(O)cc2)C(=O)N(C)[C@@H](C)C(=O)N[C@@H](CC(N)=O)C(=O)N2CCC[C@H]2C(=O)NC2(Cc3ccccc3C2)C(=O)N[C@@H](CC(C)C)C(=O)N2C[C@H](O)C[C@H]2C(=O)N[C@@H](Cc2c[nH]c3ccccc23)C(=O)N[C@@H](CCN)C(=O)N[C@@H](Cc2c[nH]c3ccccc23)C(=O)N1C [Example 9018] ({CH2CO}-Y[NMeA]NP[Aic]L[Hyp]W[Dab]W[NMeNle][NMeNle]LCG-NH2; thioether N-14)	10 to 99
CCCC[C@H]1C(=O)N(C)[C@@H](CCCC)C(=O)N[C@@H](CCCNC(=N)N)C(=O)NC(C(=O)NCC(N)=O)CSCC(=O)N[C@@H](Cc2ccc(O)cc2)C(=O)NC2(CC2)C(=O)N[C@@H](CC(N)=O)C(=O)N2CCC[C@H]2C(=O)N[C@@H](Cc2c[nH]cn2)C(=O)N[C@@H](CC(C)C)C(=O)N2C[C@H](O)C[C@H]2C(=O)N[C@@H](Cc2c[nH]c3ccccc23)C(=O)N[C@@H](CO)C(=O)N[C@@H](Cc2csc3ccccc23)C(=O)N1C (stereo partly shown) [Example 9001] ({CH2CO}-Y[Ac3c]NPHL[Hyp]WS[Bta][NMeNle][NMeNle]R[ξC]G-NH2; thioether N-14)	4 to 9.9
CCCC[C@H]1C(=O)N(C)[C@@H](CCCC)C(=O)N[C@@H](CCCNC(=N)N)C(=O)NC(C(=O)NCC(N)=O)CSCC(=O)N[C@@H](Cc2ccc(O)cc2)C(=O)NC(C)(C)C(=O)N[C@@H](CC(N)=O)C(=O)N2CCC[C@H]2C(=O)N[C@@H](Cc2c[nH]cn2)C(=O)N[C@@H](CC(C)C)C(=O)N2C[C@H](O)C[C@H]2C(=O)N[C@@H](Cc2c[nH]c3ccccc23)C(=O)N[C@@H](CO)C(=O)N[C@@H](Cc2c[nH]c3ccccc23)C(=O)N1C (stereo partly shown) [Example 9004]	10 to 99
CCCC[C@H]1C(=O)N(C)[C@@H](CCCC)C(=O)N[C@@H](CC(C)C)C(=O)N[C@H](C(=O)NCC(N)=O)CSCC(=O)N[C@@H](Cc2ccc(O)cc2)C(=O)N(C)[C@@H](C)C(=O)N[C@@H](CC(N)=O)C(=O)N2CCC[C@H]2C(=O)NC2(CC2)C(=O)N[C@@H](CC(C)C)C(=O)N2C[C@H](O)C[C@H]2C(=O)N[C@@H](Cc2c[nH]c3ccccc23)C(=O)N[C@@H](CCN)C(=O)N[C@@H](Cc2c[nH]c3ccccc23)C(=O)N1C [Example 9012] ({CH2CO}-Y[NMeA]NP[Ac3c]L[Hyp]W[Dab]W[NMeNle][NMeNle]LCG-NH2; thioether N-14)	10 to 99
CCCC[C@H]1C(=O)N(C)[C@@H](CCCC)C(=O)N[C@@H](CCCNC(=N)N)C(=O)NC(C(=O)NCC(N)=O)CSCC(=O)N[C@@H](Cc2ccc(O)cc2)C(=O)NC(C)(C)C(=O)N[C@@H](CC(N)=O)C(=O)N2CCC[C@H]2C(=O)N[C@@H](Cc2c[nH]cn2)C(=O)N[C@@H](CC(C)C)C(=O)N2C[C@H](O)C[C@H]2C(=O)N[C@@H](Cc2c[nH]c3ccccc23)C(=O)N[C@@H](CO)C(=O)N[C@@H](Cc2csc3ccccc23)C(=O)N1C (stereo partly shown) [Example 9003] ({CH2CO}-Y[Aib]NPHL[Hyp]WS[Bta][NMeNle][NMeNle]R[ξC]G-NH2; thioether N-14)	10 to 99
